Test results published in patent US11781149B2, “Systems and methods for control of gene expression” (TRUSTEES OF BOSTON UNIVERSITY, priority 2018, dated 2023).

T1: syntrophin PDZ domain (Mus musculus, UniProt Q61234)
T1 construct: syn PDZ1; made in house; host or cells: E. coli BL-21 Rosetta (DE3)pLysS, pMAL-c5X vector
T1 sequence (Q61234 77-171): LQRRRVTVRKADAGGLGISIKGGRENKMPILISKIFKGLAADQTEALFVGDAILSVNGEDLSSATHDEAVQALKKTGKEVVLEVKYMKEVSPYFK


What was measured:
syntrophin PDZ domain = molecular target: T1, syntrophin PDZ domain; test: Fluorescence anisotropy PDZ-ligand binding, syntrophin, direct and competition; design: key to Syn Kd (μM), PDZ affinity (Kp): nb indicates no binding; settings: for Kd: read-out: Syn Kd (μM), PDZ affinity (Kp)
Description: (§1) Probes were generated by annealing an unlabeled top oligo to a labeled bottom oligo in a 2:1 ratio, while binding competitor oligos were generated using unlabeled top and bottom oligos mixed at equimolar ratios. For PDZ binding experiments, fluorescein-labeled peptide probe (ordered from Selleckhem) used for PDZ binding measurements contained the sequence VKESLV* (SEQ ID NO: 6), where the N-terminus was labeled with a FITC conjugate. Probe concentration was assessed by measuring Abs490. Competitor peptides were purified as MBP-ZF43-8 fusions (see e.g., FIG. 5A-FIG. 5B, FIG. 7A-FIG. 7B).
(§2) All assays were conducted in 20 mM Tris, pH 7.5, 100 mM […], 50 μM ZnCl2 buffer at 25° C. Proteins, probes, and competitor oligos were added to a final volume of 300 μL. Probes were used at 10 nM in all experiments. For complex assembly experiments (FIG. 1C), indicated concentrations of MBP-ZF43-8 harboring a VSKESLV* ligand (SEQ ID NO: 120) (see e.g., FIG. 5A-FIG. 5B, FIG. 7A-FIG. 7B) were titrated against 5 μM concentrations of clamp. Mixtures were allowed to equilibrate at 25° C. for 10 min in Costar black 96-well plates prior to reading. Fluorescence anisotropy (FA) measurements were made at 494 nm using a SpectraMax M5 (Molecular Devices) fluorescence plate reader. For all measurements, anisotropy (r) was calculated using the following equation, wherein I∥ and I⊥ are parallel and perpendicular fluorescence, respectively:
(§3) Fraction of bound probe was calculated using the following equation, wherein rbound and rfree are the anisotropy values for fully bound and fully unbound probe, respectively:
(§4) Each of these values was measured independently of binding curves with either a 100× excess or absence of ZF (in the case of ZF-oligo binding) or PDZ (in the case of PDZ-ligand binding). Q is the ratio of total fluorescence (measured at 454 nm) under rbound and rfree conditions. To obtain binding constants for ZF-probe and PDZ-probe interactions, binding data were fit to the following quadratic equation, wherein [P] is the total concentration of either ZF or PDZ, [probe] is the total concentration of the oligo or peptide probe, and Kd is the dissociation constant of the interaction:
(§5) Competition binding curves were calculated by fitting competition binding curves to the following cubic equation, wherein fb is fraction probe bound, [L*T] is the total probe concentration, [RT] and [R] are total and free concentrations of the ZF, respectively, while [LT] and [L] are total and free concentrations of competitor. Kd1 is the affinity for TF and probe, while Kd2 is the affinity between TF and competitor:
(§6) As a first step toward construction of a molecular assembly scheme amenable to modeling, a set of part variants was identified comprising a range of Kt and Kp values, and then in vitro binding experiments were conducted to directly measure their binding affinities (see e.g., FIG. 6, FIG. 7A, FIG. 7B). […] For each ZF, previously described R-to-A ZF backbone mutations were used as affinity variants (see e.g., Khalil et al., Cell. 150, 647-658 2012). DBM affinity series (DBM1, DBM2, etc.) for both ZFs by were also generated by systematically mutating nucleotides both in the core and directly flanking the core 9-bp recognition sequence (ZF 1: a[…]c (SEQ ID NO: 99); ZF2: a[…]c (SEQ ID NO: 102)). Similarly, PDZ-ligand affinities were measured for two domains (syntrophin ‘syn’ and erbin ‘erb’) and their respective partner ligands. For each pair, ligands of various affinities were obtained from published reports (S1, S2, . . .; E1, E2, . . . )12, 13 (see e.g., FIG. 7A, FIG. 7B). Altogether, this yielded a set of component interactions consisting of 15 ZF-DNA and 13 PDZ-ligand pairs with in vitro-measured values ranging from mid μM to low nM, permitting broad, tunable control of Kt and Kp.
(§7) PDZ-ligand binding constants were measured in vitro by fluorescence anisotropy. Recombinant proteins were purified as described herein. […]

erbin PDZ domain = molecular target: T2, erbin PDZ domain (Homo sapiens, UniProt Q96RT1, V1340R); test: Fluorescence anisotropy PDZ-ligand competition binding, erbin; design: key to Erb Kd (μM), PDZ affinity (Kp): nb indicates no binding; settings: for Kd: read-out: Erb Kd (μM), PDZ affinity (Kp)
T2 construct: made in house; host or cells: E. coli BL-21 Rosetta (DE3)pLysS, pMAL-c5X vector
Description: as §1, §2, §3, §4, §5, §6, §7

[1] = system: HEK293FT reporter cell line; test: Clamp assembly-mediated transcriptional activation, mCherry reporter by flow cytometry; format: cell-based; settings: transfected into HEK293FT reporter line, 4 tandem DBMs, pMinCMV
Excerpt: In the work in yeast, clamp-dependent assembly was initially based on the ability of a zinc finger-based synthetic transcription factor (synTF) and clamp to induce higher reporter activation when co-expressed. To test the possibility that assembly-mediated gene expression also works in mammalian cells, a similar approach was taken. Expression plasmids were generated for synTF (sequence descriptions in Example 7) and a 2-unit (nc=2) clamp (sequence description in Example 7), both driven by a strong UBC promoter (pUBC, Ubiquitin C promoter). A corresponding HEK293FT reporter cell line was generated by lentiviral transduction of a synTF-responsive reporter construct, composed of 4 tandem 20-bp DNA-binding motifs (DBMs) upstream of a minimal CMV promoter (pMinCMV) driving expression of an mCherry fluorescent protein.
Different combinations of the synTF and clamp expression plasmids were transfected into the HEK293FT reporter line, and mCherry reporter expression was assayed using flow cytometry (see e.g., FIG. 19).

[2] = system: DBM oligo probe (FITC labeled); test: In vitro complex assembly: synTF titration of DBM oligo probe with or without clamp (fluorescence anisotropy); format: binding
Excerpt: FIG. 1A-FIG. 1E is a series of graphs and schematics showing the design scheme for assembly-mediated regulatory control of synthetic gene circuits. (FIG. 1A) Nodes in cellular networks use one-to-one regulatory interactions to execute simple computation-al tasks (top); cooperative interactions within multivalent assemblies enable complex, non-linear signal processing (bottom). (FIG. 1B) Design of synthetic TF regulatory assemblies. Complexes are built from interaction domains (ZF and PDZ) and their respective binding partners (DBM and PDZ ligand). Clamp-mediated synTF complex-formation (TA, transcriptional activator domain drives coding sequence transcription). Interaction affinities (Kt and Kp) and the number of repeated complex units (nc) determine thermodynamics of assembly. (FIG. 1C) In vitro assembly of purified cooperative complex components. Fluorescence anisotropy for synTF titration of DBM oligo probe ([…]) and converted to fraction probe bound (Nb, synTFs with binding-deficient PDZ ligand mutants; nc, number of PDZ domains per clamp and DBMs probe). Points represent mean values for three measurements±SE. (FIG. 1D) Testing in vivo complex assembly in yeast using a synthetic gene circuit (GFP output). All genes are chromosomally-integrated (left; see e.g., Table 4). Small molecule-inducible expression systems (ncTET and ncZEV) control intracellular expression levels (see e.g., FIG. 8A, FIG. 8B) of synTF (induced by ATc, 2-500 ng/mL) and clamp (EST, 0.05-12.5 nM), respectively. Adjusting molecular features of assembly (Kt, Kp, nc) tunes overall circuit transfer function (right). (FIG. 1E) Parameterization of thermodynamic complex assembly model. Dose response data for circuit configurations with various Kt, Kp, nc values were fit to a thermodynamic model (see e.g., FIG. 10, FIG. 11); regression plot showing residual from fit are shown at the right. MAE, mean absolute error.
Thus, synTF binding cooperativity is enhanced by the clamp and scales in magnitude with complex size.
as §2, with “For complex assembly experiments (FIG. 1C), indicated concentrations of MBP-ZF43-8 harboring a VSKESLV* ligand (SEQ ID NO: 120) (see e.g., FIG. 5A-FIG. 5B, FIG. 7A-FIG. 7B) were titrated against 5 μM concentrations of clamp.” left out
Species used in the binding assay are described in FIG. 5A and FIG. 5B, and descriptions for protein purification and the binding assay are described elsewhere herein. […]

T2 sequence (Q96RT1 with tags, fused parts or gaps V1340R): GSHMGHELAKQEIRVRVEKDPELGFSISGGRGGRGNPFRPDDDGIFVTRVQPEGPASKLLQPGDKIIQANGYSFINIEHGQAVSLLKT

Molecule	Kd (syntrophin PDZ domain) [µM]	Erb Kd (μM), PDZ affinity (Kp) (erbin PDZ domain)	Kd (erbin PDZ domain) [µM]	further results
IRWTIV	0.49	–	1.73	–
WLVTWV	–	–	0.1	Syn Kd (μM), PDZ affinity (Kp) (syntrophin PDZ domain): nb
VKEALV	27.3	nb	–	–
VKESLV	1.97	–	5.71	–
clamp: SEQ ID NO: 144, 2-unit clamp of α-syntrophin PDZ domains with 3x FLAG tag and NLS (protein) MDYKDHDGDYKDHDIDYKDDDDKMAPKKKRKVVELQRRRVTVRKADAGGLGISIKGGRENKMPILISKIFKGLAADQTEALFVGDAILSVNGEDLSSATHDEAVQALKKTGKEVVLEVKYMKEVSPYFKGSGGSSGSGPGSSGGSGPGSGSSGGSGSGPGSGGSSGPGSETELVELQRRRVTVRKADAGGLGISIKGGRENKMPILISKIFKGLAADQTEALFVGDAILSVNGEDLSSATHDEAVQALKKTGKEVVLEVKYMKEVSPYFKG	–	–	–	mCherry reporter expression [1]: enhancement of reporter activation
synTF: MBP-ZF43-8 fusion harboring a VKESLV-type syntrophin PDZ ligand, titrated against DBM oligo probe (protein, left off: large carriers, MBP-ZF43-8 fusion harboring a VKESLV-type syntrophin PDZ ligand, titrated against DBM oligo probe) GEAPFQCRICMANFSRQDRLDRHTRTHTGEKPFQCRICMANFSQKEHLAGHLRTHTGEKPFQCRICMANFSRRDNLNRHLKTHLRGSGSGVKESLV	–	–	–	cooperativity (nH) ([2]; nc=2 probe, two-PDZ clamp added (2 μM)): 1.81; cooperativity (nH) ([2]; nc=2 probe, without clamp): 1.07; EC50 ([2]; nc=2 probe, without clamp, read-out: affinity of synTFs for the probe (EC50)): 210 nM; cooperativity (nH) ([2]; nc=3 probe and three-repeat clamp): 2.55

The next lines start with results.

Kd (syntrophin PDZ domain) [µM]	Erb Kd (μM), PDZ affinity (Kp) (erbin PDZ domain)	Kd (erbin PDZ domain) [µM]	Molecule	further results
0.18	nb	–	IRETIL	–
43.2	nb	–	HLETFF	–
–	nb	–	VKEAAA	Syn Kd (μM), PDZ affinity (Kp) (syntrophin PDZ domain): nb
0.062	nb	–	IRETII	–
–	–	0.33	WLKTWV	Syn Kd (μM), PDZ affinity (Kp) (syntrophin PDZ domain): nb
0.88	–	3.46	IRETIV	–
1.57	–	0.42	PVDSWV	–
